Assays:
[1] = target: T1, Dual specificity mitogen-activated protein kinase kinase 3 (Homo sapiens) (UniProt P46734); assay: Inhibition of MAP2K3 ACT labeling site in human Huh-7 cell lysate at 1 uM by KiNativ Profiling analysis relative to control; format: subcellular
T1 sequence (whole entry): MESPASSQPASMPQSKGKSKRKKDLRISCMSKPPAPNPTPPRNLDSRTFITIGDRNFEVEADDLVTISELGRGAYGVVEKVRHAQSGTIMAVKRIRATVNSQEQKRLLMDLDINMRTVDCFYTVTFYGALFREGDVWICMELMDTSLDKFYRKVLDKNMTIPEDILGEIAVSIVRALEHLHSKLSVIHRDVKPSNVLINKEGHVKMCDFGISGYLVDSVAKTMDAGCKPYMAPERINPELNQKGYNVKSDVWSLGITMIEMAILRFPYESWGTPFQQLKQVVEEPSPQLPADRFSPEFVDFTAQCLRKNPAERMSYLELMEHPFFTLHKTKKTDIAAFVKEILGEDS

[2] = target: T2, Serine/threonine-protein kinase D1 (Homo sapiens) (UniProt Q15139); assay: Inhibition of PKD1 Lys2 labeling site in human Huh-7 cell lysate at 1 uM by KiNativ Profiling analysis relative to control; format: subcellular
T2 sequence (whole entry): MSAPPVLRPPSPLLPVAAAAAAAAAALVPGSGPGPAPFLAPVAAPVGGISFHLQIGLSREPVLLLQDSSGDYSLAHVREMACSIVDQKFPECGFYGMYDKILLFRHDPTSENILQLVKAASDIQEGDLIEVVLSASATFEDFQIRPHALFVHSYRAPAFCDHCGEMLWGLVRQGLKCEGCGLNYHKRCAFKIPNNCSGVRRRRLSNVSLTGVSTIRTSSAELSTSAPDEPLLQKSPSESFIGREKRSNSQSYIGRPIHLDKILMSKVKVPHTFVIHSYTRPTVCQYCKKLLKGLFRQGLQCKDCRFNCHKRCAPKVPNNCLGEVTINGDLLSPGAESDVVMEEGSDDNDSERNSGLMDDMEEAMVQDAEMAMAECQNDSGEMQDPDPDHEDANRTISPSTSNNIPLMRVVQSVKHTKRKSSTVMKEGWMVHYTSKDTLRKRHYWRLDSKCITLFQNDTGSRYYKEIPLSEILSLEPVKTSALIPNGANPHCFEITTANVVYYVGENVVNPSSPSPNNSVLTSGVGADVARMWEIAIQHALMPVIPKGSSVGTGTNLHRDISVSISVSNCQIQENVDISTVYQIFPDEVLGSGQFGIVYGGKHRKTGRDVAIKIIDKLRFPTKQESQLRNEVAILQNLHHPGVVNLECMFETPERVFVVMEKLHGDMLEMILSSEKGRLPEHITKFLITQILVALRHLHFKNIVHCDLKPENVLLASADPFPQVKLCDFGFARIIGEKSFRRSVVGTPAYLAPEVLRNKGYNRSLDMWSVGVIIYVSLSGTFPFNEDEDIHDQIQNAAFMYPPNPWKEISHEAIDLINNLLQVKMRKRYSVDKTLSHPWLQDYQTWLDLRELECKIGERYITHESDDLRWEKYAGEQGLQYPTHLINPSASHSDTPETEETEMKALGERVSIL

[3] = target: Cyclin-dependent kinase 9 (Homo sapiens) (UniProt P50750); assay: Inhibition of CDK9 Lys2 labeling site in human Huh-7 cells at 1 uM by KiNativ Profiling analysis relative to control; format: cell-based
[4] = target: Cyclin-dependent kinase 13 (Homo sapiens) (UniProt Q14004); assay: Inhibition of CHED Lys2 labeling site harbouring DIKCSNILLNNR in human Huh-7 cells at 1 uM by KiNativ Profiling analysis relative to control; format: cell-based
[5] = Inhibition of KHS1 Lys2 labeling site in human A-375 cells at 0.05 uM by KiNativ Profiling analysis relative to control; settings: condition cancer
[6] = target: T3, Scaffold protein ILK (Homo sapiens) (UniProt Q13418); assay: Inhibition of ILK ACT labeling site in human Huh-7 cells at 10 uM by KiNativ Profiling analysis relative to control; format: cell-based
T3 sequence (whole entry): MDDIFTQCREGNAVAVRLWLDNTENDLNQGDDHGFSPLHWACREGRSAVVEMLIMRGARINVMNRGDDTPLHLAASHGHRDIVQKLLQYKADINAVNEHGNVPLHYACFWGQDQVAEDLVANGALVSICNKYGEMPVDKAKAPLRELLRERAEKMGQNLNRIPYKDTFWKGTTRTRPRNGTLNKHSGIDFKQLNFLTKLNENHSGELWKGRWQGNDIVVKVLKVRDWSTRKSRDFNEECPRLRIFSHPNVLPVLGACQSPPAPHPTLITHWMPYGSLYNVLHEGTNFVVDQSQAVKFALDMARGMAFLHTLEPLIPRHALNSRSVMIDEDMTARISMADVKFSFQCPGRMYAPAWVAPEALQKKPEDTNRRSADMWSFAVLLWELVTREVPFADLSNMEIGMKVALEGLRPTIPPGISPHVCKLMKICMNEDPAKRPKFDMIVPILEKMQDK

[7] = target: T4, Serine/threonine-protein kinase ULK3 (Homo sapiens) (UniProt Q6PHR2); assay: Inhibition of ULK3 K1 labeling site in human Huh-7 cells at 10 uM by KiNativ Profiling analysis relative to control; format: cell-based
T4 sequence (whole entry): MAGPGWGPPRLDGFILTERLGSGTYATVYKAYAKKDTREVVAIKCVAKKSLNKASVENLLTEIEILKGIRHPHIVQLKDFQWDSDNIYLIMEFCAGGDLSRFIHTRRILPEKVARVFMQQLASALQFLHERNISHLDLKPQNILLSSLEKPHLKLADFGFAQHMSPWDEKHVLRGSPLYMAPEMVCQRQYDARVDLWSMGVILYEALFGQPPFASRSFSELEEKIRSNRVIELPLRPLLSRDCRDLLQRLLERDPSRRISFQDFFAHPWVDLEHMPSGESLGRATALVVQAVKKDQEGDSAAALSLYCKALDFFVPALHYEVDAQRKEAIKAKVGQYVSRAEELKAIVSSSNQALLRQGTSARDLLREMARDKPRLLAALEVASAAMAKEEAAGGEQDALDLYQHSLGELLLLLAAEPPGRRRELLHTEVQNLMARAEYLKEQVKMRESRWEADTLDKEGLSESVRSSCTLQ

[8] = target: Ribosomal protein S6 kinase beta-1 (Homo sapiens) (UniProt P23443); assay: Inhibition of S6K1 (unknown origin) at 1 uM by Ambit Kinomescan binding assay relative to control
[9] = target: Serine/threonine-protein kinase 35 (Homo sapiens) (UniProt Q8TDR2); assay: Inhibition of STK35 (unknown origin) at 1 uM by Ambit Kinomescan binding assay relative to control
Chain of Serine/threonine-protein kinase 35 (Homo sapiens) (Q8TDR2 whole entry): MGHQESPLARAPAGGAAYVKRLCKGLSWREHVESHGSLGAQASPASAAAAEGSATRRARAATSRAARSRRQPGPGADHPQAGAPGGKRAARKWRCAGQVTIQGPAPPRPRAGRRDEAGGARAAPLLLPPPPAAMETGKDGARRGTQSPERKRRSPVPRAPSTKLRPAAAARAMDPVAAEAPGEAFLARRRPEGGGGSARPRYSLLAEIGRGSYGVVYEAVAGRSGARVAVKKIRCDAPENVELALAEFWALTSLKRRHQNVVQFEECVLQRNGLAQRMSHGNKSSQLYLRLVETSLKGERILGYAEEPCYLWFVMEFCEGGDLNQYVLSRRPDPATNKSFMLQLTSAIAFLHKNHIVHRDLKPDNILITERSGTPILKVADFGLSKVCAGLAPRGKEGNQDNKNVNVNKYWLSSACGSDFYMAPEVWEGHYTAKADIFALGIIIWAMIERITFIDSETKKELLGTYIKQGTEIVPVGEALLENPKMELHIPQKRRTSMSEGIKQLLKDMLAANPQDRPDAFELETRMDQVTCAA

Chain of Ribosomal protein S6 kinase beta-1 (Homo sapiens) (P23443 whole entry, looked up): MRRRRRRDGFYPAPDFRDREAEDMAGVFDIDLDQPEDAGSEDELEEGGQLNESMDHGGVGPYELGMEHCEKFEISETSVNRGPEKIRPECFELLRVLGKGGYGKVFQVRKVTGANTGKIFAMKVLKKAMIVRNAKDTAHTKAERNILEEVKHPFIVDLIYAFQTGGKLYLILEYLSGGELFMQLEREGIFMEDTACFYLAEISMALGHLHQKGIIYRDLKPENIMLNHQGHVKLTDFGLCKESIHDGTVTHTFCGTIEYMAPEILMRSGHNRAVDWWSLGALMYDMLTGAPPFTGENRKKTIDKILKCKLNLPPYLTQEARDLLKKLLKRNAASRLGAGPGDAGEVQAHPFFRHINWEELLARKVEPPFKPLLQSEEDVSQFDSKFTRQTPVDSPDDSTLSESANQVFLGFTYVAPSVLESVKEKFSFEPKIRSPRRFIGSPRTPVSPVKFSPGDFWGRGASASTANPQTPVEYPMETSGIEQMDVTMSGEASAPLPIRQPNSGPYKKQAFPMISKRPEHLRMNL
Chain of Cyclin-dependent kinase 13 (Homo sapiens) (Q14004 whole entry, looked up): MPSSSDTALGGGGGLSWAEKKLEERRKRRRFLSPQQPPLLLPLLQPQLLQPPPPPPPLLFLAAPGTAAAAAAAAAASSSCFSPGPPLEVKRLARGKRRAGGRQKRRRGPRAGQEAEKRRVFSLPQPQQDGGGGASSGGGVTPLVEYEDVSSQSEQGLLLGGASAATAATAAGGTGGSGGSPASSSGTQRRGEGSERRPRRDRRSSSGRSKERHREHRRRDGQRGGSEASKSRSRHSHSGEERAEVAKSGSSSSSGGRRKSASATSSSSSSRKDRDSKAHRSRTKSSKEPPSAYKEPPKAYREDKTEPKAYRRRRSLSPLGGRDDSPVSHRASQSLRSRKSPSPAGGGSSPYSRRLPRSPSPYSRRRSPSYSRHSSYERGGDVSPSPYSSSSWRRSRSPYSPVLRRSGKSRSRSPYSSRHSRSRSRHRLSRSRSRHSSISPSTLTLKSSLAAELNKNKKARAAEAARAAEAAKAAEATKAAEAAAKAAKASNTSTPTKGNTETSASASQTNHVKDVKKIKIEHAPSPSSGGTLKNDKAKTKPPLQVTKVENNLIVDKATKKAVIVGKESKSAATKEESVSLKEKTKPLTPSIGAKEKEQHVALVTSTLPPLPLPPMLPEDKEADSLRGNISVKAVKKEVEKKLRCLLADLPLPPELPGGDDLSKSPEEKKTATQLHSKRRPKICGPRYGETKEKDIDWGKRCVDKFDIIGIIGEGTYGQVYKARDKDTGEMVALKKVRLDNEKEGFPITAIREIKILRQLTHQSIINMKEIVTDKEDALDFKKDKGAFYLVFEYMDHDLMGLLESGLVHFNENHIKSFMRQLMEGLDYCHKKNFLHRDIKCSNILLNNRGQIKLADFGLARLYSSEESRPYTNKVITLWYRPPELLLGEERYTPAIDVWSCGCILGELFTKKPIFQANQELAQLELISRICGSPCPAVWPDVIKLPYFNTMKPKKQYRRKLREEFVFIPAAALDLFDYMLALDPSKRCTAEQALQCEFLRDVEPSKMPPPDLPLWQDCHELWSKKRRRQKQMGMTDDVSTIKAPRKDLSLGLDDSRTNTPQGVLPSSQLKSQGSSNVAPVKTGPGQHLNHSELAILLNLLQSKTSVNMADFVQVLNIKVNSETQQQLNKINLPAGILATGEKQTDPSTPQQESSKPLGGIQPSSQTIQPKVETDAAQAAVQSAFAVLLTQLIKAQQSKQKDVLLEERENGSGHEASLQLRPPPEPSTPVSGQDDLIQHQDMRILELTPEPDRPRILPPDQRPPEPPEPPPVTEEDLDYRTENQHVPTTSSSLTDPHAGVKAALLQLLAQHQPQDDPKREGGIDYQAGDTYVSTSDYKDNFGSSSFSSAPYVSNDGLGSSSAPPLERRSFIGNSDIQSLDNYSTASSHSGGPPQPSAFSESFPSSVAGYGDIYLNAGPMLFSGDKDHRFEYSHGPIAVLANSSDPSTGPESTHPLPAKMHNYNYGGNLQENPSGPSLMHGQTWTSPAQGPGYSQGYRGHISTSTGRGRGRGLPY
Chain of Cyclin-dependent kinase 9 (Homo sapiens) (P50750 whole entry): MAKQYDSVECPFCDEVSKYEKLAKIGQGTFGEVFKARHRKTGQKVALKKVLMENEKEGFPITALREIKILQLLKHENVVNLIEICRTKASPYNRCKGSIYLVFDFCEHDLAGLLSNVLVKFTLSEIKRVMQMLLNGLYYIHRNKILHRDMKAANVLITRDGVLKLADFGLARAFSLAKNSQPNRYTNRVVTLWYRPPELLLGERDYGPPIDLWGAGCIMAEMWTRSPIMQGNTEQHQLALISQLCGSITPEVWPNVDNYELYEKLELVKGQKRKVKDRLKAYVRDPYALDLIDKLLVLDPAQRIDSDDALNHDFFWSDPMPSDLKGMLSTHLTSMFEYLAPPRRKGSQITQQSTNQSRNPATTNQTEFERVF

Compound: CNc1cc(Oc2cc(C(=O)Nc3cc(N4CCN(C)CC4)cc(C(F)(F)F)c3)ccc2C)ncn1
- inhibition [1]: 0.6%
- inhibition [2]: -3.5%
- inhibition [3]: 22.4%
- inhibition [4]: 38.1%

Compound: CCN1CCN(Cc2ccc(NC(=O)c3ccc(C)c(Oc4ccnc5[nH]ccc45)c3)cc2C(F)(F)F)CC1
- inhibition at 0.05 µM [5]: -15.4%
- inhibition [6]: -1.1%
- inhibition [7]: 48%

Compound: CCN1CCN(Cc2ccc(NC(=O)c3ccc(C)c(/C=C/c4cnc5[nH]ccc5c4OC)c3)cc2C(F)(F)F)CC1
- inhibition [8]: 46%
- inhibition [9]: 65%
